Source: patent US20170050957A1, “4-AMINO-6-(HETEROCYCLIC)PICOLINATES AND 6-AMINO-2-(HETEROCYCLIC)PYRIMIDINE-4-CARBOXYLATES AND THEIR USE AS HERBICIDES” (Dow AgroSciences LLC, priority 2013, published 2017)
Where two headings read alike, the source gives them in different places.

What was measured:
[1] = tested on: Key Grass and Sedge Weeds as well as Grass Crops; experiment: Post-emergent Test II herbicidal activity (Table 16); type: in vivo; details: post-emergence, 336 h, 14 d; for pest or weed control at 35 g/ha: 35 g ai/ha; for pest or weed control at 70 g/ha: 70 g ai/ha; for pest or weed control at 140 g/ha: 140 g ai/ha
In short: (§1)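 Plants grown in greenhouse (~15 h photoperiod, 23-29 °C day, 22-28 °C night) to first or second true leaf stage, then sprayed post-emergence at 187 L/ha with a high rate and 1/2×, 1/4×, 1/8× and 1/16× dilutions. Injury scored visually after 14 d, 0-100% versus untreated plants.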

[2] = tested on: Key Broadleaf Weed and Crop Species; experiment: Post-emergent Test II herbicidal activity (Table 15); type: in vivo; details: post-emergence, 336 h, 14 d; for pest or weed control at 35 g/ha: 35 g ai/ha; for pest or weed control at 70 g/ha: 70 g ai/ha; for pest or weed control at 140 g/ha: 140 g ai/ha
In short: as §1

[3] = Cyperus esculentus, yellow nutsedge (Cyperus esculentus), read-out: Visual Growth Reduction (%) 14 Days After Application, CYPES
[4] = Echinochloa crus-galli, barnyardgrass (Echinochloa crus-galli), read-out: Visual Growth Reduction (%) 14 Days After Application, ECHCG
[5] = Oryza sativa, rice (Oryza sativa), read-out: Visual Growth Reduction (%) 14 Days After Application, ORYSA
[6] = Setaria faberi, giant foxtail (Setaria faberi), read-out: Visual Growth Reduction (%) 14 Days After Application, SETFA
[7] = Triticum aestivum, wheat, spring (Triticum aestivum), read-out: Visual Growth Reduction (%) 14 Days After Application, TRZAS
[8] = Zea mays, maize, corn (Zea mays), read-out: Visual Growth Reduction (%) 14 Days After Application, ZEAMX
[9] = Abutilon theophrasti, velvetleaf (Abutilon theophrasti), read-out: Visual Growth Reduction (%) 14 Days After Application, ABUTH
[10] = Amaranthus retroflexus, redroot pigweed (Amaranthus retroflexus), read-out: Visual Growth Reduction (%) 14 Days After Application, AMARE
[11] = Brassica napus, oilseed rape, canola (Brassica napus), read-out: Visual Growth Reduction (%) 14 Days After Application, BRSNN
[12] = Chenopodium album, lambsquarters (Chenopodium album), read-out: Visual Growth Reduction (%) 14 Days After Application, CHEAL
[13] = Euphorbia heterophylla, wild poinsettia (Euphorbia heterophylla), read-out: Visual Growth Reduction (%) 14 Days After Application, EPHHL
[14] = Helianthus annuus, sunflower (Helianthus annuus), read-out: Visual Growth Reduction (%) 14 Days After Application, HELAN

SMILES | pest or weed control at 35 g/ha [1, 3] [%] | pest or weed control at 70 g/ha [1, 3] [%] | pest or weed control at 140 g/ha [1, 3] [%] | pest or weed control at 35 g/ha [1, 4] [%] | pest or weed control at 70 g/ha [1, 4] [%] | pest or weed control at 140 g/ha [1, 4] [%] | pest or weed control at 35 g/ha [1, 5] [%] | pest or weed control at 70 g/ha [1, 5] [%] | pest or weed control at 140 g/ha [1, 5] [%] | pest or weed control at 35 g/ha [1, 6] [%] | pest or weed control at 70 g/ha [1, 6] [%] | pest or weed control at 140 g/ha [1, 6] [%] | pest or weed control at 35 g/ha [1, 7] [%] | pest or weed control at 70 g/ha [1, 7] [%] | pest or weed control at 140 g/ha [1, 7] [%] | pest or weed control at 35 g/ha [1, 8] [%] | pest or weed control at 70 g/ha [1, 8] [%] | pest or weed control at 140 g/ha [1, 8] [%] | pest or weed control at 35 g/ha [2, 9] [%] | pest or weed control at 70 g/ha [2, 9] [%] | other results
COC(=O)c1nc(-c2ccc3cc[nH]c3c2F)c(Cl)c(N)c1Cl [Compound 1.07] | 0 to 29 | 0 to 29 | 0 to 29 | 0 to 29 | 0 to 29 | 0 to 29 | 0 to 29 | 0 to 29 | 0 to 29 | 60 to 74 | 75 to 84 | 75 to 84 | 0 to 29 | 0 to 29 | 0 to 29 | 0 to 29 | 0 to 29 | 0 to 29 | 0 to 29 | 0 to 29 | pest or weed control at 140 g/ha [2, 9]: 0 to 29%; pest or weed control at 35 g/ha [2, 10]: 85 to 94%; pest or weed control at 70 g/ha [2, 10]: 95 to 100%; pest or weed control at 140 g/ha [2, 10]: 95 to 100%; pest or weed control at 35 g/ha [2, 11]: 0 to 29%; pest or weed control at 70 g/ha [2, 11]: 0 to 29%; pest or weed control at 140 g/ha [2, 11]: 0 to 29%; pest or weed control at 35 g/ha [2, 12]: 85 to 94%; pest or weed control at 70 g/ha [2, 12]: 85 to 94%; pest or weed control at 140 g/ha [2, 12]: 85 to 94%; pest or weed control at 35 g/ha [2, 13]: 60 to 74%; pest or weed control at 70 g/ha [2, 13]: 60 to 74%; pest or weed control at 140 g/ha [2, 13]: 60 to 74%; pest or weed control at 35 g/ha [2, 14]: 95 to 100%; pest or weed control at 70 g/ha [2, 14]: 95 to 100%; pest or weed control at 140 g/ha [2, 14]: 95 to 100%
COC(=O)c1nc(-c2cc3[nH]ccc3cc2F)c(F)c(N)c1Cl [Compound 1.13] | 0 to 29 | 0 to 29 | 0 to 29 | 0 to 29 | 0 to 29 | 0 to 29 | 0 to 29 | 0 to 29 | 0 to 29 | 0 to 29 | 0 to 29 | 0 to 29 | 0 to 29 | 0 to 29 | 0 to 29 | 0 to 29 | 0 to 29 | 0 to 29 | 0 to 29 | 0 to 29 | pest or weed control at 140 g/ha [2, 9]: 0 to 29%; pest or weed control at 35 g/ha [2, 10]: 0 to 29%; pest or weed control at 70 g/ha [2, 10]: 30 to 44%; pest or weed control at 140 g/ha [2, 10]: 30 to 44%; pest or weed control at 35 g/ha [2, 11]: 0 to 29%; pest or weed control at 70 g/ha [2, 11]: 0 to 29%; pest or weed control at 140 g/ha [2, 11]: 30 to 44%; pest or weed control at 35 g/ha [2, 12]: 60 to 74%; pest or weed control at 70 g/ha [2, 12]: 75 to 84%; pest or weed control at 140 g/ha [2, 12]: 85 to 94%; pest or weed control at 35 g/ha [2, 13]: 0 to 29%; pest or weed control at 70 g/ha [2, 13]: 0 to 29%; pest or weed control at 140 g/ha [2, 13]: 30 to 44%; pest or weed control at 35 g/ha [2, 14]: 45 to 59%; pest or weed control at 70 g/ha [2, 14]: 60 to 74%; pest or weed control at 140 g/ha [2, 14]: 60 to 74%
COC(=O)c1nc(-c2ccc(Cl)c3[nH]ccc23)c(F)c(N)c1Cl [Compound 1.43] | 0 to 29 | 0 to 29 | 0 to 29 | 0 to 29 | 0 to 29 | 0 to 29 | 0 to 29 | 0 to 29 | 0 to 29 | 0 to 29 | 0 to 29 | 0 to 29 | 0 to 29 | 0 to 29 | 0 to 29 | 0 to 29 | 0 to 29 | 0 to 29 | 0 to 29 | 0 to 29 | pest or weed control at 140 g/ha [2, 9]: 60 to 74%; pest or weed control at 35 g/ha [2, 10]: 95 to 100%; pest or weed control at 70 g/ha [2, 10]: 95 to 100%; pest or weed control at 140 g/ha [2, 10]: 95 to 100%; pest or weed control at 35 g/ha [2, 11]: 0 to 29%; pest or weed control at 70 g/ha [2, 11]: 0 to 29%; pest or weed control at 140 g/ha [2, 11]: 0 to 29%; pest or weed control at 35 g/ha [2, 12]: 75 to 84%; pest or weed control at 70 g/ha [2, 12]: 85 to 94%; pest or weed control at 140 g/ha [2, 12]: 85 to 94%; pest or weed control at 35 g/ha [2, 13]: 0 to 29%; pest or weed control at 70 g/ha [2, 13]: 0 to 29%; pest or weed control at 140 g/ha [2, 13]: 30 to 44%; pest or weed control at 35 g/ha [2, 14]: 60 to 74%; pest or weed control at 70 g/ha [2, 14]: 75 to 84%; pest or weed control at 140 g/ha [2, 14]: 75 to 84%
